The values below come from ChEMBL document CHEMBL2113921, “Open Source Malaria Deposition 1. http://malaria.ourexperiment.org” (2013).

Data set [1] relates to Plasmodium falciparum. Kind of data set: OSM: Inhibition of Plasmodium falciparum 3D7 growth. IC50 values determined from 21 point dose response curves. Avery Group Griffith. It counts as functional, organism-based.
For data set [2], the system named is Plasmodium falciparum K1. Description: OSM: Inhibition of Plasmodium falciparum K1 growth. IC50 values determined from 21 point dose response curves. Avery Group Griffith. It counts as functional, organism-based.
Data set [3] is described as follows: OSM: HEK293 cytotoxicity assay. IC50 values determined from 21 point dose response curves. Avery Group Griffith. The data set is classed as toxicity, cell-based. As to conditions: human, HEK293 cells.
For data set [4], the system named is Plasmodium falciparum. Description: OSM: Late stage gametocytes. IC50 values determined from 21 point dose response curves. Avery Group Griffith. The data set is classed as functional, organism-based. As to conditions: Pfs16-GFP transgenic NF54.
For data set [5], the system named is Plasmodium falciparum. Description: OSM: CSIR assay 3D7: Compounds were tested for inhibition of Plasmodium falciparum growth using a SYBR green I fluorescence based assay. It counts as functional, organism-based.
Data set [6] deals with Plasmodium falciparum K1. Description: OSM: CSIR assay K1: Compounds were tested for inhibition of Plasmodium falciparum growth using a SYBR green I fluorescence based assay. It counts as functional, organism-based.
Data set [7] is described as follows: OSM: HEK293 cytotoxicity assay. Duplicate point single experiment at 120 uM. Avery Group, Griffith. It counts as toxicity, cell-based. As to conditions: human, HEK293 cells; read-out: Inhibition.
Data set [8] is described as follows: OSM: Microsomal stability: 0.5 uM substrate, 0.4 mg/mL protein, NADPH cofactor. Analysed by LC/MS. Degradation rate classification. The data set is classed as ADME, Microsome. As to conditions: human, microsomes.
Data set [9] has as its system Plasmodium falciparum. Kind of data set: OSM: Inhibition of Plasmodium falciparum 3D7 growth using a SYBR green I fluorescence based assay. GSK Tres Cantos. The data set is classed as functional, organism-based.
For another data set, the system named is Plasmodium berghei. Description: OSM: Mice are infected intravenously with parasitized red blood cells on day 0 (2 x 10^7 parasitized erythrocytes per ml). Experimental mice are generally treated at 4, 24, 48, and 72 hours post-infection with an oral dose of the compound (50 mg/kg, 4-day test by Peters) and are compared to an infected control group for reduction in parasitaemia on day 4 (96 hours post-infection) as a percentage. The data set is classed as functional, organism-based. To be noted: Mus musculus; Swiss; Plasma.

Data set [10] in a line: OSM: Kinetic solubility pH 2 0.01 M HCl ug/mL. The data set is classed as ADME.
The target of data set [11] is Voltage-gated inwardly rectifying potassium channel KCNH2 (Homo sapiens, UniProt Q12809). Description: OSM: hERG, IC50 uM (Essen Bioscience): IonWorks patch clamp electrophysiology. 8 point concentration-response curves were generated using 3-fold serial dilutions from the maximum final assay concentration of 33 uM. It counts as functional. (The hERG channel carries a current that helps repolarise heart muscle cells.)

Data set [12] in a line: OSM: Microsomal stability: 0.5 uM substrate, 0.4 mg/mL protein, NADPH cofactor. Analysed by LC/MS. Degradation half life (min). The data set is classed as ADME, Microsome. As to conditions: human, microsomes.
A short description of data set [13]: OSM: Kinetic solubility pH 6.5 isotonic phosphate buffer. It counts as ADME.
Data set [14] is described as follows: OSM: Microsomal stability: 0.5 uM substrate, 0.4 mg/mL protein, NADPH cofactor). Analysed by LC/MS. In vitro CLint (uL/min/mg protein). It counts as ADME, Microsome. To be noted: human, microsomes.
Data set [15] relates to Plasmodium falciparum. Description: OSM: Inhibition of Plasmodium falciparum 3D7 growth using a SYBR green I fluorescence based assay. Dose response curves were generated comprising of 8 points using a 2-fold serial dilution for the maximum final concentration of 1000 nM. Ralph Group, Bio21. It counts as functional, organism-based.
The test system of data set [16] is Plasmodium falciparum. Description: OSM: Percent inhibition of Plasmodium falciparum 3D7 growth at 100 uM. Avery Group Griffith. It counts as functional.

SMILES strings stand for the structures. In brackets after ≈: the same amount, converted by molar mass. Activity calls are given as the source filed them. The rule behind the calls is not given here.

Voltage-gated inwardly rectifying potassium channel KCNH2, sequence (Q12809 whole entry): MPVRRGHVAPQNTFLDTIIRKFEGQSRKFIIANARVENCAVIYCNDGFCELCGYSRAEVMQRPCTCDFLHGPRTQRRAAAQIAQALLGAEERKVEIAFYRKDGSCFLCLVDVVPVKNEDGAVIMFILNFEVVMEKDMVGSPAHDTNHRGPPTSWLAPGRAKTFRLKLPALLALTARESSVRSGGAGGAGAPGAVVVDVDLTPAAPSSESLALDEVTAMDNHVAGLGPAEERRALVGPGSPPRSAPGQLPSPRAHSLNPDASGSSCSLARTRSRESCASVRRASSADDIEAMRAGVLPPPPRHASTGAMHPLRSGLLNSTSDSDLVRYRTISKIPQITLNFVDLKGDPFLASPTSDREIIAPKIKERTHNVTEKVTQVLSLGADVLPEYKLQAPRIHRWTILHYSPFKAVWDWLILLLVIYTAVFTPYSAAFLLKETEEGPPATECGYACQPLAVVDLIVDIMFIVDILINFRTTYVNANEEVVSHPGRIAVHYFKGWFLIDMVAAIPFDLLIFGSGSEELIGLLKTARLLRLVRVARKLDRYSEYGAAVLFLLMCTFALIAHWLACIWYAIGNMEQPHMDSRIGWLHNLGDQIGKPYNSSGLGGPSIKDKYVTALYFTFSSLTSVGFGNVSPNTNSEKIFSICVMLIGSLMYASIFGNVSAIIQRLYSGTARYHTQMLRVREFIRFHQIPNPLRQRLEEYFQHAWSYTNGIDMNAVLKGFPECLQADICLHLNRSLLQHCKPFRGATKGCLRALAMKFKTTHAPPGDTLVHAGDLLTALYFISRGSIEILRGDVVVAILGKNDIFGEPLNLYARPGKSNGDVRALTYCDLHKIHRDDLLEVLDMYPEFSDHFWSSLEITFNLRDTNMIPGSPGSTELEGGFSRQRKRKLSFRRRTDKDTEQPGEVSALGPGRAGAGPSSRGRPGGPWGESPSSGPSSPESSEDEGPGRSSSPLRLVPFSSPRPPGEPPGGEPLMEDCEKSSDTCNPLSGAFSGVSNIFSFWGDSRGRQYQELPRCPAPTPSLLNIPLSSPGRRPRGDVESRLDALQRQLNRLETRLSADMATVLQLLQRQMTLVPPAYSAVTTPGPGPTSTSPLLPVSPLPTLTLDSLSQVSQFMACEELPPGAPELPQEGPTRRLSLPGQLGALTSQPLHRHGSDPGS

The term IC50 denotes the concentration needed to halve the response being measured. Regarding `CC[C@H](C)[C@H](NC(=O)[C@H]([C@@H](C)CC)N(C)C(C)=O)C(=O)N[C@H](C(=O)N[C@@H](CC(C)C)C(=O)[C@@]1(C)CO1)[C@@H](C)O` [EPOXOMYCIN], the IC50 amounted to 4.2 nM in the data set with Plasmodium falciparum [1], 2.8 nM in the data set with Plasmodium falciparum K1 [2], 33.6 nM in data set [3] and 0.3 nM in the data set with Plasmodium falciparum [4].
In the case of `Cc1cc(/C=C2\S/C(=N\c3ccccc3)N(c3ccccc3)C2=O)c(C)n1-c1cccc(F)c1`, the concentration for half-maximal inhibition (IC50) was 3200 nM in the data set with Plasmodium falciparum [5] and > 5000 nM in the data set with Plasmodium falciparum K1 [6].
The term kinetic solubility denotes the concentration staying in solution when a stock, usually in DMSO, is diluted into the medium. The term half-life denotes the time in which the quantity being followed falls by half. A word on the microsomal CLint: it is the capacity of the preparation to metabolise the compound, expressed as a volume cleared per time. As to `Cc1cc(C(=O)OCC(N)=O)c(C)n1-c1ccc(F)cc1`, the half-inhibitory concentration (IC50) in the data set on Plasmodium falciparum [5] was 581 nM; with Plasmodium falciparum [1], 404 nM; in the data set with Plasmodium falciparum K1 [2], 375 nM; with Plasmodium falciparum [9], 818 nM; in the data set on Plasmodium falciparum K1 [6], 641 nM; in data set [11], > 33000 nM. The cytotoxicity at 120 µM in data set [7] came to 20%. Besides, the Relative metabolic rate entry in data set [8] was “Moderate”. Besides, the Reduced_parasitemia result in the data set with Plasmodium berghei is “inactive”. In addition, the solubility (kinetic) in data set [10] and in [13] was 50 µg/mL (≈ 172 µM) in each case. Besides, the half-life at 0.5 µM in data set [12] came to 59 min. Moreover, the microsomal CLint at 0.5 µM in data set [14] was 29 µL/min/mg.
`Cc1cc(/C=C2\SC(=Nc3ccccc3)NC2=O)c(C)n1-c1ccccc1`: the half-inhibitory concentration (IC50) was 26 nM with Plasmodium falciparum [1], 11 nM in the data set with Plasmodium falciparum [15], 36 nM in the data set with Plasmodium falciparum [9] and > 33000 nM in data set [11]. Moreover, in the data set on Plasmodium berghei, the Reduced_parasitemia entry is “inactive”.
Regarding `Cc1cc(C(=O)OCC(=O)Nc2c(C)n(C)n(-c3ccccc3)c2=O)c(C)n1-c1ccc(F)cc1`, the IC50 in the data set on Plasmodium falciparum [1] turned out to be 345 nM; in the data set on Plasmodium falciparum K1 [2] it was 152 nM; with Plasmodium falciparum [9], 245 nM. The cytotoxicity at 120 µM in data set [7] was determined as 20%. Further, in data set [8], the Relative metabolic rate result is “Moderate”. Further, the Reduced_parasitemia result in the data set with Plasmodium berghei was “inactive”. Further, the kinetic solubility in data set [10] and in [13] was 12.5 µg/mL (≈ 26.2 µM) throughout. For the same compound, the half-life at 0.5 µM in [12] was 29 min. In addition, in data set [14], the intrinsic clearance (microsomal CLint) at 0.5 µM was 60 µL/min/mg.
A word on the inhibition: it is the relative decrease from the control value, in per cent. In the data set with Plasmodium falciparum [16], `O=C1N=C(Nc2ccccc2)S/C1=C\c1ccccc1` showed an inhibition at 100 µM of 100%. In addition, the IC50 with Plasmodium falciparum [15] was > 1000 nM; in the data set with Plasmodium falciparum [9] it was > 5000 nM.
Consider `CCc1nc(N)nc(N)c1-c1ccc(Cl)cc1` [PYRIMETHAMINE], for which the IC50 in the data set with Plasmodium falciparum [1] was 8.95 nM; in the data set with Plasmodium falciparum K1 [2], 11900 nM; in data set [3], 13900 nM.
